Assay results published in patent US20240150290A1, “HETEROCYCLIC P2Y14 RECEPTOR ANTAGONISTS” (priority 2021, published 2024).
In brackets after ≈: the same amount, converted by molar mass. Like-named read-outs stand apart in the source and are kept apart here. Marks after values point to notes of the source that are not given here.

Columns and labels:
[1] = target: T1, hP2Y14R (Homo sapiens, UniProt Q15391); experiment: Inhibition of fluorescent antagonist binding in whole hP2Y14R-expressing CHO cells (flow cytometry)
T1 construct: expressed in transfected cells; host or cells: CHO cells
T1 sequence (Q15391 1-338): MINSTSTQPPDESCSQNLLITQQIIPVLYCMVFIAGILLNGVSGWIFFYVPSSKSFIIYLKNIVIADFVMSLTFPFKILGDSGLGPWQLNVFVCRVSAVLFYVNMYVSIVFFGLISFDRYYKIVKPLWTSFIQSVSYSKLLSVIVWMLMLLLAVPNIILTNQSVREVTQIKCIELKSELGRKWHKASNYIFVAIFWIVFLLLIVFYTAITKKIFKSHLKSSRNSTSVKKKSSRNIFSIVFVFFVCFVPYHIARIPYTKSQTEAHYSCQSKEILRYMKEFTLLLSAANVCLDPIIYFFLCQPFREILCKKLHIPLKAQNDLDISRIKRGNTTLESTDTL

[2] = Aqueous solubility, pION method
[3] = HPLC-based lipophilicity (Log D7.4); conditions: for chromatographic logD: pH 7.4
[4] = Table 2, whole hP2Y14R-CHO cells, 20 nM fluorescent antagonist 3, mean+SEM, n = 3-6, read-out: IC50
[5] = Table 1, fluorescent antagonist 2, hP2Y14R-CHO cells, 3-4 determinations, read-out: IC50, hP2Y14R (μM, mean ± SEM)

## N[C@@H]1C[C@H](CO)C[C@H]1c1ccc(-c2cc(C(=O)O)cc3cc(-c4ccc(C(F)(F)F)cc4)ccc23)cc1 [Compound 136, 4-(4-((1S,2R,4R)-2-Amino-4-(hydroxymethyl)cyclopentyl)phenyl)-7-(4-(trifluoromethyl)phenyl)-2-naphthoic acid]
[1]; [4]
  IC50: 0.1 ± 0.019 µM
[2]
  Solubility (ug/mL) pH 4: 3.74 ± 0.09 ug/mL
  Solubility (ug/mL) pH 7.4: 0.93 ± 0.20 ug/mL
[3]
  chromatographic logD: 1.06 ± 0.05

## CN1C[C@H]2CC[C@@H](C1)[C@]2(O)c1ccc(-c2cc(C(=O)O)cc3cc(-c4ccc(C(F)(F)F)cc4)ccc23)cc1 [Compound 132, 4-(4-((1R,5S,8r)-8-Hydroxy-3-methyl-3-azabicyclo[3.2.1]octan-8-yl)phenyl)-7-(4-(trifluoromethyl)phenyl)-2-naphthoic acid]
[1]
  IC50: 0.0446 ± 0.0017 µM
[2]; pH 4, aqueous buffer
  solubility: 1.81 ± 0.05 µg/mL (≈ 3.4 µM)
[2]; pH 7.4, aqueous buffer
  solubility: 0.88 ± 0.09 µg/mL (≈ 1.66 µM)
[3]
  chromatographic logD: 1.37 ± 0.02

## O=C(O)c1cc(-c2ccc(C34CCNCC3C4(F)F)cc2)c2ccc(-c3ccc(C(F)(F)F)cc3)cc2c1 (stereo not shown) [Compound 109, 4-(4-(7,7-Difluoro-3-azabicyclo[4.1.0]heptan-6-yl)phenyl)-7-(4-(trifluoromethyl)phenyl)-2-naphthoic acid]
[1]; [4]
  IC50: 0.211 ± 0.036 µM
[2]
  Solubility (ug/mL) pH 4: 1.13 ± 0.34 ug/mL
  Solubility (ug/mL) pH 7.4: 0.25 ± 0.01 ug/mL
[3]
  chromatographic logD: 2.71 ± 0.33

## CC1CC(c2ccc(-c3cc(C(=O)O)cc4cc(-c5ccc(C(F)(F)F)cc5)ccc34)cc2)CCN1 (stereo not shown) [Compound 107, 4-(4-(2-Methylpiperidin-4-yl)phenyl)-7-(4-(trifluoromethyl)phenyl)-2-naphthoic acid]
[1]; [4]
  IC50: 0.0178 ± 0.002 µM
[2]
  Solubility (ug/mL) pH 4: 0.31 ± 0.04 ug/mL
  Solubility (ug/mL) pH 7.4: 0.16 ± 0.03 ug/mL
[3]
  chromatographic logD: 2.05 ± 0.11

## O=C(O)c1cc(-c2ccc([C@@]3(O)C[C@H]4CC[C@@H]3CN4)cc2)c2ccc(-c3ccc(C(F)(F)F)cc3)cc2c1 [Compound 125b]
[2]
  Solubility (ug/mL) pH 4: 1.55 ± 0.11 ug/mL
  Solubility (ug/mL) pH 7.4: 0.74 ± 0.06 ug/mL

## O=C(O)c1cc(-c2ccc([C@H]3C[C@H]4C[C@@H]3CN4)cc2)c2ccc(-c3ccc(C(F)(F)F)cc3)cc2c1 (racemic) [Compound 112, rac-4-(4-((1S,4S,5S)-2-Azabicyclo[2.2.1]heptan-5-yl)phenyl)-7-(4-(trifluoromethyl)phenyl)-2-naphthoic acid]
[1]
  IC50: 0.0059 ± 0.0007 µM
[2]; pH 7.4, aqueous buffer
  solubility: 0.47 ± 0.06 µg/mL (≈ 0.964 µM)
[3]
  chromatographic logD: 1.95 ± 0.01

## O=C(O)c1cc(-c2ccc(C3CCNC3)cc2)c2ccc(-c3ccc(C(F)(F)F)cc3)cc2c1 (racemic) [Compound 105, 4-(4-(Pyrrolidin-3-yl)phenyl)-7-(4-(trifluoromethyl)phenyl)-2-naphthoic acid]
[3]
  chromatographic logD: 1.89 ± 0.07

## O=C(O)c1cc(-c2ccc([C@]3(O)C[C@H]4CC[C@@H](C3)N4)cc2)c2ccc(-c3ccc(C(F)(F)F)cc3)cc2c1 [Compound 127, 4-(4-((1R,3r,5S)-3-Hydroxy-8-azabicyclo[3.2.1]octan-3-yl)phenyl)-7-(4-(trifluoromethyl)phenyl)-2-naphthoic acid]
[3]
  chromatographic logD: 1.16 ± 0.08

## O=C(O)c1cc(-c2ccc(C3(O)C4CCC3CN(Cc3ccccc3)C4)cc2)c2ccc(-c3ccc(C(F)(F)F)cc3)cc2c1 (mixture of isomers) [Compound 130, 4-(4-((1R,5S,8r)-3-Benzyl-8-hydroxy-3-azabicyclo[3.2.1]octan-8-yl)phenyl)-7-(4-(trifluoromethyl)phenyl)-2-naphthoic acid]
[3]
  chromatographic logD: 3.26 ± 0.01

## O=C(O)c1cc(-c2ccc([C@@]34CCNC[C@@H]3C4)cc2)c2ccc(-c3ccc(C(F)(F)F)cc3)cc2c1 (racemic) [Compound 108, 4-(4-(3-Azabicyclo[4.1.0]heptan-6-yl)phenyl)-7-(4-(trifluoromethyl)phenyl)-2-naphthoic acid]
[1]
  IC50: 0.0455 ± 0.0072 µM
[2]; pH 4, aqueous buffer
  solubility: 1.32 ± 0.17 µg/mL (≈ 2.71 µM)
[2]; pH 7.4, aqueous buffer
  solubility: 0.17 ± 0.01 µg/mL (≈ 0.349 µM)
[3]
  chromatographic logD: 2.44 ± 0.06

## CC(=O)N1C[C@H]2C[C@@H]1C[C@@H]2c1ccc(-c2cc(C(=O)O)cc3cc(-c4ccc(C(F)(F)F)cc4)ccc23)cc1 (racemic) [Compound 113, rac-4-(4-((1S,4S,5S)-2-Acetyl-2-azabicyclo[2.2.1]heptan-5-yl)phenyl)-7-(4-(trifluoromethyl)phenyl)-2-naphthoic acid]
[1]; [4]
  IC50: 0.0204 ± 0.0024 µM
[2]; pH 4, aqueous buffer
  solubility: 0.13 ± 0.04 µg/mL (≈ 0.245 µM)
[2]; pH 7.4, aqueous buffer
  solubility: 2.53 ± 0.43 µg/mL (≈ 4.78 µM)
[3]
  chromatographic logD: 0.921 ± 0.034

## N[C@H]1C[C@@H](C(=O)O)[C@H](c2ccc(-c3cc(C(=O)O)cc4cc(-c5ccc(C(F)(F)F)cc5)ccc34)cc2)C1 [Compound 139, 4-(4-((1R,2R,4R)-4-Amino-2-carboxycyclopentyl)phenyl)-7-(4-(trifluoromethyl)phenyl)-2-naphthoic acid]
[1]; [4]
  IC50: 0.102 ± 0.025 µM
[2]
  Solubility (ug/mL) pH 4: 1.05 ± 0.20 ug/mL
  Solubility (ug/mL) pH 7.4: 5.52 ± 0.21 ug/mL
[3]; HPLC-based lipophilicity
  Log D7.4: −0.568 ± 0.038

## O=C(O)c1cc(-c2ccc(C3=CC4CCC(C3)N4)cc2)c2ccc(-c3ccc(C(F)(F)F)cc3)cc2c1 (stereo not shown) [Compound 128, 4-(4-(8-Azabicyclo[3.2.1]oct-2-en-3-yl)phenyl)-7-(4-(trifluoromethyl)phenyl)-2-naphthoic acid]
[2]
  Solubility (ug/mL) pH 4: 2.36 ± 0.01 ug/mL
  Solubility (ug/mL) pH 7.4: 0.35 ± 0.04 ug/mL
[3]
  chromatographic logD: 2.33 ± 0.04

## O=C(O)c1cc(-c2ccc(C3CC4CCC3CN4)cc2)c2ccc(-c3ccc(C(F)(F)F)cc3)cc2c1 (racemic) [Compound 126]
[2]
  Solubility (ug/mL) pH 4: 0.80 ± 0.05 ug/mL
  Solubility (ug/mL) pH 7.4: 0.49 ± 0.06 ug/mL
[3]
  chromatographic logD: 1.74 ± 0.02

## O=C(O)c1cc(-c2ccc(C3C4CCC3CNC4)cc2)c2ccc(-c3ccc(C(F)(F)F)cc3)cc2c1 (stereo not shown) [Compound 129, 4-(4-(3-Azabicyclo[3.2.1]octan-8-yl)phenyl)-7-(4-(trifluoromethyl)phenyl)-2-naphthoic acid]
[1]; [4]
  IC50: 0.0383 ± 0.002 µM
[2]
  Solubility (ug/mL) pH 4: 0.38 ± 0.04 ug/mL
  Solubility (ug/mL) pH 7.4: 0.13 ± 0.00 ug/mL
[3]; calculated from retention factor difference between ligands and 1 (k = 3.41)
  Log D7.4: 2.33 ± 0.09^f

## O=C(O)c1cc(-c2ccc(C3C4CCC3CNC4)cc2)c2ccc(-c3ccc(C(F)(F)F)cc3)cc2c1 (stereo not shown) [Compound 133, 4-(4-(3-Azabicyclo[3.2.1]octan-8-yl)phenyl)-7-(4-(trifluoromethyl)phenyl)-2-naphthoic acid]
[1]
  IC50: 0.696 ± 0.1 µM
[2]; pH 4, aqueous buffer
  solubility: 0.32 ± 0.01 µg/mL (≈ 0.638 µM)
[2]; pH 7.4, aqueous buffer
  solubility: 0.16 ± 0.01 µg/mL (≈ 0.319 µM)
[3]
  chromatographic logD: 2.97 ± 0.02

## O=C(O)c1cc(-c2ccc([C@H]3C[C@@H]4CN[C@H]3C4)cc2)c2ccc(-c3ccc(C(F)(F)F)cc3)cc2c1 [Compound 117, 4-(4-((1S,4S,6R)-2-Azabicyclo[2.2.1]heptan-6-yl)phenyl)-7-(4-(trifluoromethyl)phenyl)-2-naphthoic acid]
[1]; Table 6, fluorescent hP2Y14R antagonist (3), read-out: hP2Y14R, IC50
  IC50: 0.0259 ± 0.0076 µM
[3]
  chromatographic logD: 2.11 ± 0.06

## N[C@@H]1C[C@H](C(=O)O)C[C@H]1c1ccc(-c2cc(C(=O)O)cc3cc(-c4ccc(C(F)(F)F)cc4)ccc23)cc1 [Compound 140, 4-(4-((1S,2R,4R)-2-Amino-4-carboxycyclopentyl)phenyl)-7-(4-(trifluoromethyl)phenyl)-2-naphthoic acid]
[1]; [4]
  IC50: 0.165 ± 0.051 µM
[2]
  Solubility (ug/mL) pH 4: 0.34 ± 0.07 ug/mL
  Solubility (ug/mL) pH 7.4: 3.92 ± 0.10 ug/mL
[3]; HPLC-based lipophilicity
  Log D7.4: −0.478 ± 0.050

## CC1CNCCC1c1ccc(-c2cc(C(=O)O)cc3cc(-c4ccc(C(F)(F)F)cc4)ccc23)cc1 (mixture of isomers) [Compound 106, 4-(4-(3-Methylpiperidin-4-yl)phenyl)-7-(4-(trifluoromethyl)phenyl)-2-naphthoic acid]
[1]; [4]
  IC50: 0.0209 ± 0.0036 µM
[2]
  Solubility (ug/mL) pH 4: 1.36 ± 0.21 ug/mL
  Solubility (ug/mL) pH 7.4: 0.03 ± 0.02 ug/mL
[3]
  chromatographic logD: 2.79 ± 0.09

## O=C(O)c1cc(-c2ccc([C@@H]3CCN[C@H]4C[C@H]43)cc2)c2ccc(-c3ccc(C(F)(F)F)cc3)cc2c1 (racemic) [Compound 110, rac-4-(4-((1S,5R,6S)-2-Azabicyclo[4.1.0]heptan-5-yl)phenyl)-7-(4-(trifluoromethyl)phenyl)-2-naphthoic acid]
[1]
  IC50: 0.0424 ± 0.0117 µM
[2]; pH 4, aqueous buffer
  solubility: 0.1 ± 0.03 µg/mL (≈ 0.205 µM)
[2]; pH 7.4, aqueous buffer
  solubility: 0.51 ± 0.23 µg/mL (≈ 1.05 µM)
[3]
  chromatographic logD: 2.59 ± 0.2

## O=C(O)c1cc(-c2ccc([C@]3(O)C[C@H]4CC[C@@H]3CN4)cc2)c2ccc(-c3ccc(C(F)(F)F)cc3)cc2c1 [Compound 125a]
[2]
  Solubility (ug/mL) pH 4: 2.66 ± 0.29 ug/mL
  Solubility (ug/mL) pH 7.4: 2.19 ± 0.10 ug/mL
[3]; HPLC-based lipophilicity
  Log D7.4: 0.74 ± 0.05

## Nc1ccc(-c2cc(C(=O)O)cc(-n3cc(-c4ccc(C(F)(F)F)cc4)nn3)c2)cc1 [Compound 7, 4′-Amino-5-(4-(4-(trifluoromethyl)phenyl)-1H-1,2,3-triazol-1-yl)-[1,1′-biphenyl]-3-carboxylic acid]
[1]; [5]
  IC50: 1.48 ± 0.16 µM

## CC(=O)Nc1ccc(-c2cc(C(=O)O)cc(-n3cc(-c4ccc(C(F)(F)F)cc4)nn3)c2)cc1 [Compound 8, 4′-Acetamido-5-(4-(4-(trifluoromethyl)phenyl)-1H-1,2,3-triazol-1-yl)-[1,1′-biphenyl]-3-carboxylic acid]
[1]; [5]
  IC50: 0.811 ± 0.095 µM

## O=C(O)c1cc(-c2ccc([C@@H]3CCN[C@@H]4C[C@@H]43)cc2)c2ccc(-c3ccc(C(F)(F)F)cc3)cc2c1 (racemic) [Compound 111, rac-4-(4-((1R,5R,6R)-2-Azabicyclo[4.1.0]heptan-5-yl)phenyl)-7-(4-(trifluoromethyl)phenyl)-2-naphthoic acid]
[1]
  IC50: 0.0618 ± 0.0141 µM
[2]
  Solubility (ug/mL) pH 4: 0.24 ± 0.02 ug/mL
[2]; pH 7.4, aqueous buffer
  solubility: 0.05 ± 0.04 µg/mL (≈ 0.103 µM)
[3]
  chromatographic logD: 1.75 ± 0.06
